Measurements published in ChEMBL document CHEMBL1201862, “PubChem BioAssay data set” (2004).
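How tested: cells in 96-well plates exposed to compound for 48 hours at five concentrations. Here, GI50 denotes the concentration required for 50% inhibition of growth.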 Calls of active or inactive are those of the source. Cut-off read from the data, not from the text of the source: active = GI50 up to about 1.1 µM and inactive = higher.

Experiments:
Test in all cases: NCI tumour cell line growth inhibition, 48 h
A498 = system: A498
A549 = system: A549
ACHN = system: ACHN
BT-549 = system: BT-549
CCRF-CEM = system: CCRF-CEM
HCT-116 = system: HCT-116
HCT-15 = system: HCT-15
HOP-62 = system: HOP-62
IGROV-1 = system: IGROV-1
KM12 = system: KM12
M14 = system: M14
MOLT-4 = system: MOLT-4
Malme-3M = system: Malme-3M
NCI-H23 = system: NCI-H23
NCI-H460 = system: NCI-H460
OVCAR-5 = system: OVCAR-5
SK-MEL-5 = system: SK-MEL-5
SW-620 = system: SW-620
UACC-62 = system: UACC-62
SF-539 = system: SF-539

| Compound | GI50 (A498) | GI50 (A549) | GI50 (ACHN) | GI50 (BT-549) | GI50 (CCRF-CEM) | GI50 (HCT-116) | GI50 (HCT-15) | GI50 (HOP-62) | GI50 (IGROV-1) | GI50 (KM12) | GI50 (M14) | GI50 (MOLT-4) | GI50 (Malme-3M) | GI50 (NCI-H23) | GI50 (NCI-H460) | GI50 (OVCAR-5) | GI50 (SK-MEL-5) | GI50 (SW-620) | GI50 (UACC-62) | GI50 (SF-539) |
| --- | --- | --- | --- | --- | --- | --- | --- | --- | --- | --- | --- | --- | --- | --- | --- | --- | --- | --- | --- | --- |
| COc1ccc2[nH]c(C(O)(Cc3cccnc3)Cc3cccnc3)cc2c1 | > 100 µM (inactive) | > 100 µM (inactive) | > 100 µM (inactive) | > 100 µM (inactive) | > 100 µM (inactive) | > 100 µM (inactive) | > 100 µM | > 100 µM (inactive) | > 100 µM (inactive) | > 100 µM (inactive) | > 100 µM (inactive) | > 100 µM (inactive) | > 100 µM (inactive) | > 100 µM (inactive) | > 100 µM (inactive) | > 100 µM (inactive) | > 100 µM (inactive) | > 100 µM (inactive) | > 100 µM (inactive) | – |
| COc1ccccc1NC(=S)Nc1cc(C)ccn1 | > 100 µM (inactive) | > 100 µM (inactive) | – | > 100 µM (inactive) | > 100 µM (inactive) | > 100 µM (inactive) | > 100 µM | 66.8 µM (inactive) | 74 µM (inactive) | > 100 µM (inactive) | > 100 µM (inactive) | > 100 µM (inactive) | > 100 µM (inactive) | – | > 100 µM (inactive) | > 100 µM (inactive) | > 100 µM (inactive) | > 100 µM (inactive) | > 100 µM (inactive) | > 100 µM (inactive) |
| O=C1Cc2c([nH]c3ccccc23)C2(CC3CCCCN13)OCCO2 (stereo not given) | > 100 µM (inactive) | > 100 µM (inactive) | > 100 µM (inactive) | > 100 µM (inactive) | 90.4 µM (inactive) | > 100 µM (inactive) | > 100 µM | > 100 µM (inactive) | 45.2 µM (inactive) | > 100 µM (inactive) | > 100 µM (inactive) | – | 62.2 µM (inactive) | > 100 µM (inactive) | > 100 µM (inactive) | > 100 µM (inactive) | > 100 µM (inactive) | > 100 µM (inactive) | 76.9 µM (inactive) | – |
| COc1cc2c(cc1OCCCC(=O)Nc1cc(C(=O)NCCCN(C)C)n(C)n1)N=CC1CCCN1C2=O (stereo not given) | 2.82 µM (inactive) | > 19.7 µM (inactive) | 6.44 µM (inactive) | 9.75 µM (inactive) | – | 12.9 µM (inactive) | 8.55 µM | > 20.8 µM (inactive) | 6.7 µM (inactive) | > 100 µM (inactive) | 8.34 µM (inactive) | 0.347 µM (active) | 6.97 µM (inactive) | 11.5 µM (inactive) | 9.89 µM (inactive) | 10.5 µM (inactive) | 5.68 µM (inactive) | 8.63 µM (inactive) | 4.24 µM (inactive) | 9.04 µM (inactive) |
| Nc1ncc2ncn(C3CCC(CO)O3)c2n1 (stereo not given) | 88.7 µM (inactive) | > 100 µM (inactive) | > 100 µM (inactive) | > 100 µM (inactive) | > 100 µM (inactive) | > 100 µM (inactive) | > 100 µM | > 100 µM (inactive) | > 100 µM (inactive) | > 100 µM (inactive) | > 100 µM (inactive) | > 100 µM (inactive) | – | > 100 µM (inactive) | > 100 µM (inactive) | > 100 µM (inactive) | > 100 µM (inactive) | > 100 µM (inactive) | > 100 µM (inactive) | > 100 µM (inactive) |
| CC(=O)OCC1OC(n2c(Br)nc3c2c(=O)n(C)c(=O)n3C)C(OC(C)=O)C1OC(C)=O (stereo not given) | 43 µM (inactive) | > 100 µM (inactive) | 48.3 µM (inactive) | 28.8 µM (inactive) | – | 35.1 µM (inactive) | > 100 µM | > 100 µM (inactive) | > 100 µM (inactive) | 64.9 µM (inactive) | 77.1 µM (inactive) | > 100 µM (inactive) | > 100 µM (inactive) | 77.3 µM (inactive) | 84.3 µM (inactive) | > 100 µM (inactive) | 31.9 µM (inactive) | 76.9 µM (inactive) | 67.6 µM (inactive) | 59.2 µM (inactive) |
| COC(CO[Si](C)(C)N[Si](C)(C)OCC(OC)c1ccccc1)c1ccccc1 (stereo not given) | > 100 µM (inactive) | > 100 µM (inactive) | > 100 µM (inactive) | > 100 µM (inactive) | > 100 µM (inactive) | > 100 µM (inactive) | > 100 µM | > 100 µM (inactive) | > 100 µM (inactive) | > 100 µM (inactive) | > 100 µM (inactive) | > 100 µM (inactive) | – | > 100 µM (inactive) | > 100 µM (inactive) | > 100 µM (inactive) | > 100 µM (inactive) | > 100 µM (inactive) | > 100 µM (inactive) | – |
